# Assay results as given in ChEMBL document CHEMBL1777795, “From benzimidazole to indole-5-carboxamide Thumb Pocket I inhibitors of HCV NS5B polymerase. Part 1: indole C-2 SAR and discovery of diamide derivatives with nanomolar potency in cell-based subgenomic replicons” (Bioorg Med Chem Lett, 2011).
# What was measured:
# [1] = Cmax in Sprague-Dawley rat at 10 mg/kg, po; format: ADME, organism-based; set-up: dose 10 mg/kg, route oral; conditions: in vivo
# [2] = Mean residence time in Sprague-Dawley rat at 10 mg/kg, po; format: ADME, organism-based; set-up: dose 10 mg/kg, route oral; conditions: in vivo
# [3] = AUC in Sprague-Dawley rat at 10 mg/kg, po; format: ADME, organism-based; set-up: dose 10 mg/kg, route oral; conditions: plasma
# [4] = (§1) Permeability from apical to basolateral side of human Caco2 cells; format: ADME, cell-based, Caco-2; conditions: Caco-2, read-out: permeability
# Caco-2 = assay: as §1; format: ADME, cell-based; conditions: caco-2, BLD = below limit of detection
compound,measurement,setting,value
Cn1c(-c2ccccn2)c(C2CCCCC2)c2ccc(C(=O)NC(C)(C)C(=O)Nc3ccc(/C=C/C(=O)O)cc3)cc21,Cmax,[1],1230 nM
same,MRT,[2],0.5 h
same,AUC,[3],0.87 µM·h
same,Papp A→B,[4],16 ×10⁻⁶ cm/s
Cn1c(-c2ccoc2)c(C2CCCCC2)c2ccc(C(=O)NC(C)(C)C(=O)Nc3ccc(/C=C/C(=O)O)cc3)cc21,Papp A→B,[4],6 ×10⁻⁶ cm/s
Cn1c(-c2nccs2)c(C2CCCCC2)c2ccc(C(=O)NC(C)(C)C(=O)Nc3ccc(/C=C/C(=O)O)cc3)cc21,Papp A→B,[4],8.5 ×10⁻⁶ cm/s
Cn1c(-c2cnco2)c(C2CCCCC2)c2ccc(C(=O)NC(C)(C)C(=O)Nc3ccc(/C=C/C(=O)O)cc3)cc21,Papp A→B,[4],5 ×10⁻⁶ cm/s
Cn1c(-c2csc(-c3cccnc3)n2)c(C2CCCCC2)c2ccc(C(=O)NC(C)(C)C(=O)Nc3ccc(/C=C/C(=O)O)cc3)cc21,Papp A→B,[4],0.2 ×10⁻⁶ cm/s
Cn1c(-c2ccc3ncccc3c2)c(C2CCCCC2)c2ccc(C(=O)NC(C)(C)C(=O)Nc3ccc(/C=C/C(=O)O)cc3)cc21,permeability,Caco-2,BLD
Cn1c(-c2cccc3cccnc23)c(C2CCCCC2)c2ccc(C(=O)NC(C)(C)C(=O)Nc3ccc(/C=C/C(=O)O)cc3)cc21,Papp A→B,[4],3.4 ×10⁻⁶ cm/s
Cn1c(-c2cccnc2)c(C2CCCCC2)c2ccc(C(=O)NC(C)(C)C(=O)Nc3ccc(/C=C/C(=O)O)cc3)cc21,Papp A→B,[4],9.4 ×10⁻⁶ cm/s
Cn1c(-c2ccncc2)c(C2CCCCC2)c2ccc(C(=O)NC(C)(C)C(=O)Nc3ccc(/C=C/C(=O)O)cc3)cc21,Papp A→B,[4],0.3 ×10⁻⁶ cm/s
Cc1cccc(-c2c(C3CCCCC3)c3ccc(C(=O)NC(C)(C)C(=O)Nc4ccc(/C=C/C(=O)O)cc4)cc3n2C)n1,Papp A→B,[4],6.9 ×10⁻⁶ cm/s
Cc1ccc(-c2c(C3CCCCC3)c3ccc(C(=O)NC(C)(C)C(=O)Nc4ccc(/C=C/C(=O)O)cc4)cc3n2C)nc1,Papp A→B,[4],16.4 ×10⁻⁶ cm/s
Cc1ccc(-c2c(C3CCCCC3)c3ccc(C(=O)NC(C)(C)C(=O)Nc4ccc(/C=C/C(=O)O)cc4)cc3n2C)cn1,Papp A→B,[4],2.6 ×10⁻⁶ cm/s
Cn1c(-c2cccc(N)n2)c(C2CCCCC2)c2ccc(C(=O)NC(C)(C)C(=O)Nc3ccc(/C=C/C(=O)O)cc3)cc21,Cmax,[1],990 nM
same,MRT,[2],3.4 h
same,AUC,[3],1.18 µM·h
same,Papp A→B,[4],1.5 ×10⁻⁶ cm/s
COc1cccc(-c2c(C3CCCCC3)c3ccc(C(=O)NC(C)(C)C(=O)Nc4ccc(/C=C/C(=O)O)cc4)cc3n2C)n1,Papp A→B,[4],24 ×10⁻⁶ cm/s
Cn1c(-c2cncnc2)c(C2CCCCC2)c2ccc(C(=O)NC(C)(C)C(=O)Nc3ccc(/C=C/C(=O)O)cc3)cc21,Papp A→B,[4],3.3 ×10⁻⁶ cm/s
Cn1c(-c2cnccn2)c(C2CCCCC2)c2ccc(C(=O)NC(C)(C)C(=O)Nc3ccc(/C=C/C(=O)O)cc3)cc21,Papp A→B,[4],7 ×10⁻⁶ cm/s
